In US10233180B2, “Substituted nitrogen-containing heterocyclic derivatives, pharmaceutical compositions comprising the same and applications of antitumor thereof” (ZHEJIANG UNIVERSITY, priority 2014, dated 2019):

What was measured:
Akt1 = target: T1, Akt1 (Homo sapiens, UniProt P31749); assay: AKT1/PKBα KinEASE FP Fluorescein Green Assay (fluorescence polarization kinase kit); assay type: biochemical; conditions: 1 h reaction, read-out: Inhibitory activities against Akt1 (IC50)
T1 construct: purchased 32-021
T1 sequence (P31749 whole entry): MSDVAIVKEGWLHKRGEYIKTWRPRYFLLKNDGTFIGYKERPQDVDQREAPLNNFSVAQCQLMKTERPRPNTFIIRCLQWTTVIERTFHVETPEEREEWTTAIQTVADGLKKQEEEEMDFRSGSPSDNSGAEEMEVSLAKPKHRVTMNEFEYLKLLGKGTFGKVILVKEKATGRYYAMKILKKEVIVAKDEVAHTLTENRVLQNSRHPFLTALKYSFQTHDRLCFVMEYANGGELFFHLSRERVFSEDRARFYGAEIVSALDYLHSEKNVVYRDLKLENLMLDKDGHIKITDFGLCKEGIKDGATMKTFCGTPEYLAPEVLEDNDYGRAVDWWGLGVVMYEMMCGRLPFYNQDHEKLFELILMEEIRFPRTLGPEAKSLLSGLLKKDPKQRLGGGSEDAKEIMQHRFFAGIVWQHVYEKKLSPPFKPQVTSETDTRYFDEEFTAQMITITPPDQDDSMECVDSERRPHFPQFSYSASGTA
Description: Second, method for determining the inhibitory activities of substituted nitrogen-containing heterocyclic derivatives in the present invention against Akt1 enzyme:
The inhibitory activities of compounds against AKT1/PKBα are determined by using AKT1/PKBα KinEASE™ FP Fluorescein Green Assay (Green fluorescence detection system of Kinase).
Principle adopted by the fluorescence polarization detection of protein kinase B is a competitive reaction: the phosphorylated tracers labeled with fluorescence will compete with unlabeled phosphorylated products produced by reacting with protein kinase B to combine anti-serine antibodies. […] However, in the reaction mixture containing phosphorylated products, fewer tracers will combine with antibodies (fluorescent tracers are replaced from the antibodies), and signals sent our occur depolarizing. Therefore, the change of polarization is directly related to the activity of protein kinase B in the reaction.
Each of 0.25 μl of compounds with a concentration of 50 μM and the positive control are added to a 384-well plate at room temperature, and each sample is provided with three parallel wells, and then 10 μl of STK Substrate 3 Working Solution, 5 μl of AKT1/PKBα Working Solution, 10 μl of ATP Working Solution are added to each sample respectively, the mixtures are slightly vibrated and shaked for a few minutes. Reaction is carried out just after the adding 10 μl of ATP Working Solution, from this time, reacting for 1 h. After 1 h, 5 μl of STK Stop Mix and 5 μl of STK Antibody Mix are added to each sample respectively to stop the reaction. The samples are maintained for 4 h at room temperature after adding is completed, the polarization values of samples are determined by fluorescence polarization of Microplate Reader (Detection of the signals is valid within 24 h), the inhibitory rate of compounds against the enzyme is calculated by polarization value, and thereby IC50 is calculated.
Experiment is set up four control groups at the same time, which are Buffer Control Wells, Tracer Control Wells, No Enzyme Wells and blank control of dimethyl sulfoxide, respectively. Thus obtained data are used to calculate the inhibitory rate (the preparation methods of above various solution required for determining the activities of compounds against enzyme refer to the specification of the kit of AKT1/PKBα KinEASE™ FP Fluorescein Green Assay Catalog #32-021).

[1] = test system: Human ovarian cancer cell strain OVCAR-8; assay: MTT assay, inhibition of tumor cell growth in vitro, 72 h; assay type: cell-based; conditions: Homo sapiens, OVCAR-8, MTT, read-out: Antitumor proliferative activities of tumor cell (IC50, μM) OVCAR-8
Description: (§1) First, inhibitory activity on tumor proliferation in vitro is determined and the structure activity relationship is preliminarily studied, in which different solid tumor cell strains are selected for determining the antitumor activities in vitro of the synthesized compounds.
(§2) Cell strains: Human ovarian cancer cell strain (OVCAR8), colon adenocarcinoma cell strain (HCT-116)
Medium: OVCAR8: RPMI 1640+Fetal Bovine Serum
(§3) Preparing method of medicines: Dissolving the medicine in DMSO to make a 50 mM stock solution, and diluting it according to a certain ratio to obtain 5 different concentrations.
(§4) Two selected tumor cells OVCAR8 and HCT-116 are incubated at 37° C. in a 5% CO2 incubator, which are subcultured when cells grow up to a density of 70˜90% (adherent cells are subcultured after digesting by Duck's EDTA) for later experiments.
(§5) Compounds are dissolved and diluted by dimethyl sulfoxide (DMSO), and tumor cells OVCAR8 and HCT-116 are seeded in a 96-well plate at a density of 4000 cells/200 μl/well, 1 μl of the compounds are added to each well with the final concentration of 50 μM, 10 μM, 2 μM, 0.4 μM and 0.08 μM, which is incubated for 72 h at 37° C. in a 5% CO2 incubator with DMSO (1%) as blank control.
(§6) The calculating formula of cell inhibitory rate is: cell inhibitory rate %=(the OD value of the control group−the OD value of the medication group)/the OD value of the control group×100%, the half maximal inhibitory concentration (IC50) is obtained by Bliss method.

[2] = test system: human colon cancer cell strain HCT-116; assay: as above; assay type: cell-based; conditions: Homo sapiens, HCT-116, MTT, read-out: Antitumor proliferative activities of tumor cell (IC50, μM) HCT-116 (converted)
Description: as §1, §2
HCT-116: RPMI 1640+Fetal Bovine Serum
as §3, §4, §5, §6

Compound	IC50 (Akt1) [µM]	IC50 [1] [µM]	IC50 [2] [µM]
Cn1ncc(Cl)c1-c1cc(C(=O)N[C@H]2CNC[C@@H]2c2ccc(C(F)(F)F)cc2)oc1Cl (racemic) [Compound 69, 5-chloro-4-(4-chloro-1-methyl-1H-pyrazol-5-yl)-N-(3,4-trans-4-(4-trifluoromethylphenyl)pyrrolidin-3-yl)furan-2-formamide]	0.323	24.3	3.04
Cc1cnn(C)c1-c1cnc(C(=O)N[C@H]2CNC[C@@H]2c2ccc(F)c(F)c2)cc1F (racemic) [Compound 70, 4-fluoro-5-(1,4-dimethyl-1H-pyrazol-5-yl)-N-(3,4-trans-4-(3,4-difluorophenyl)pyrrolidin-3-yl)pyridinyl-2-formamide]	0.087	2.69	10.3
Cc1cnn(C)c1-c1cnc(C(=O)N[C@H]2CNC[C@@H]2c2ccc(C(F)(F)F)cc2)cc1F (racemic) [Compound 71, 4-fluoro-5-(1,4-dimethyl-1H-pyrazol-5-yl)-N-(3,4-trans-4-(4-trifluoromethylphenyl)pyrrolidin-3-yl)pyridinyl-2-formamide]	0.116	2.61	11.1
Cc1cc(-c2c(Cl)cnn2C)cc(C(=O)N[C@H]2CNCC[C@@H]2c2ccccc2)n1 (relative stereo) [Compound 45, 6-methyl-4-(4-chloro-1-methyl-1H-pyrazol-5-yl)-N-(3,4-trans-4-phenylpiperidin-3-yl)pyridinyl-2-formamide]	0.812	2.01	12.6
CCc1c(-c2c(Cl)cnn2C)cc(C(=O)N[C@H]2CNCC[C@@H]2C2CCC(F)C2)n1C (stereo partly drawn) [Compound 15, 5-ethyl-1-methyl-4-(4-chloro-1-methyl-1H-pyrazol-5-yl)-N-(3,4-trans-4-(3-fluorocyclopentanyl)piperidin-3-yl)-1H-pyrrole-2-formamide]	0.052	1.26	2.04
Cc1c(C(=O)N[C@H]2CNCC[C@@H]2C2CCCC(Cl)C2)sc(Cl)c1-c1ncnn1C (stereo partly drawn) [Compound 18]	0.018	5.69	1.83
Cn1ncc(Cl)c1-c1cc(C(=O)N[C@H]2CNCC[C@@H]2c2ccc(Cl)c(Cl)c2)oc1Cl [Compound 39, 5-chloro-4-(4-chloro-1-methyl-1H-pyrazol-5-yl)-N-((3R,4R)-4-(3,4-dichlorophenyl)piperidin-3-yl)furan-2-formamide]	0.058	14.3	3.45
Cn1ncc(Cl)c1-c1cc(C(=O)N[C@@H]2CNCC[C@H]2c2ccc(Cl)c(Cl)c2)oc1Cl [Compound 40, 5-chloro-4-(4-chloro-1-methyl-1H-pyrazol-5-yl)-N-((3S,4S)-4-(3,4-dichlorophenyl)piperidin-3-yl)furan-2-formamide]	0.118	1.69	1.56
Cn1ncc(Br)c1-c1csc(C(=O)N[C@H]2CNCC[C@@H]2c2ccc(F)c(F)c2)c1 [Compound 41, 4-(4-bromo-1-methyl-1H-pyrazol-5-yl)-N-((3R,4R)-4-(3,4-difluorophenyl)piperidin-3-yl)thiophene-2-formamide]	0.452	9.43	4.06
Cn1ncc(Cl)c1-c1cc(C(=O)N[C@H]2CNCC[C@@H]2c2ccc(C(F)(F)F)cc2)oc1Cl [Compound 43, 5-chloro-4-(4-chloro-1-methyl-1H-pyrazol-5-yl)-N-((3R,4R)-4-(4-trifluoromethylphenyl)piperidin-3-yl)furan-2-formamide]	0.342	3.58	13.8
CC1CCC([C@H]2CCNC[C@@H]2NC(=O)c2ncc(-c3c(Cl)cnn3C)c(Cl)n2)CC1 (stereo partly drawn) [Compound 55, 4-chloro-5-(4-chloro-1-methyl-1H-pyrazol-5-yl)-N-(3,4-trans-4-(4-methylcyclohexane)piperidin-3-yl)pyrimidine-2-formamide]	0.048	5.79	10.8
Cc1cc(C(=O)N[C@H]2CNCC[C@@H]2C2CCCC(Cl)C2)ncc1-c1c(Cl)cnn1C (stereo partly drawn) [Compound 56, 5-(4-chloro-1-methyl-1H-pyrazol-5-yl)-N-(3,4-trans-4-(3-chlorocyclohexane)piperidin-3-yl)-4-methylpyridinyl-2-formamide]	0.362	9.53	4.51
Cc1cnn(C)c1-c1cnc(C(=O)N[C@H]2CNCC[C@@H]2c2ccc(F)c(F)c2)cc1F [Compound 61, 4-fluoro-5-(1,4-dimethyl-1H-pyrazol-5-yl)-N-((3R,4R)-4-(3,4-difluorophenyl)piperidin-3-yl)pyridinyl-2-formamide]	0.188	8.44	3.85

Continued by falling IC50 (Akt1), values first:

IC50 (Akt1) [µM]	IC50 [1] [µM]	IC50 [2] [µM]	Compound
0.672	1.88	18.3	Cn1ncc(Cl)c1-c1cc(C(=O)N[C@@H]2CNCC[C@H]2c2ccc(C(F)(F)F)cc2)oc1Cl [Compound 44, 5-chloro-4-(4-chloro-1-methyl-1H-pyrazol-5-yl)-N-((3S,4S)-4-(4-trifluoromethylphenyl)piperidin-3-yl)furan-2-formamide]
0.626	6.67	31.1	Cc1cnn(C)c1-c1cnc(C(=O)N[C@@H]2CNCC[C@H]2c2ccc(F)c(F)c2)cc1F [Compound 62, 4-fluoro-5-(1,4-dimethyl-1H-pyrazol-5-yl)-N-((3S,4S)-4-(3,4-difluorophenyl)piperidin-3-yl)pyridinyl-2-formamide]
0.256	1.62	22.6	CCc1cc(C(=O)N[C@@H]2CNCC[C@H]2c2ccc(C(F)(F)F)cc2)cnc1-c1c(Br)cnn1C [Compound 64, 5-ethyl-6-(4-bromo-1-methyl-1H-pyrazol-5-yl)-N-((3S,4S)-4-(4-trifluoromethylphenyl)piperidin-3-yl)pyridinyl-3-formamide]
0.092	9.71	8.11	Cn1ncc(Br)c1-c1csc(C(=O)N[C@@H]2CNCC[C@H]2c2ccc(F)c(F)c2)c1 [Compound 42, 4-(4-bromo-1-methyl-1H-pyrazol-5-yl)-N-((3S,4S)-4-(3,4-difluorophenyl)piperidin-3-yl)thiophene-2-formamide]
0.085	0.68	3.11	CC(C)c1cnn(C)c1-c1nc(C(=O)N[C@H]2CNCC[C@@H]2C2CCC(F)C2)ncc1Cl (stereo partly drawn) [Compound 51, 5-chloro-4-(4-isopropyl-1-methyl-1H-pyrazol-5-yl)-N-(3,4-trans-4-(3-fluorocyclopentane)piperidin-3-yl)pyrimidine-2-formamide]
0.082	9.01	3.26	CC(Cl)c1ccc([C@H]2CCNC[C@@H]2NC(=O)c2cc(Cl)c(-c3ncnn3C)s2)cc1 (stereo partly drawn) [Compound 8, 4-chloro-5-(1-methyl-1H-1,2,4-triazol-5-yl)-N-(3,4-trans-4-(4-(1-chloroethyl)phenyl)piperidin-3-yl)thiophene-2-formamide]
0.005	3.68	3.78	CCc1sc(C(=O)N[C@H]2CNCC[C@@H]2c2cnc3c(c2)CCC(C)C3)cc1-c1c(C(C)C)cnn1C (stereo partly drawn) [Compound 14, 5-ethyl-4-(4-isopropyl-1-methyl-1H-pyrazol-5-yl)-N-(3,4-trans-4-(7-methyl-5,6,7,8-tetrahydroquinolin-3-yl)piperidin-3-yl)thiophene-2-formamide]
